Laboratory results reported in ChEMBL document CHEMBL5244222, “A comprehensive review on xanthone derivatives as α-glucosidase inhibitors” (Eur J Med Chem, 2018).
Values after ≈ are worked out from the molar mass of the structure shown.

Assays:
Prunus dulcis = experiment: Inhibition of almond beta-glucosidase using p-NP-beta-G as substrate at 100 uM by spectroscopic analysis
[1] = target: Alpha-glucosidase (Saccharomyces cerevisiae S288c) (UniProt P53341+P38158+P07265); experiment: Inhibition of Saccharomyces cerevisiae alpha-glucosidase using p-NP-alpha-G as substrate at 100 uM by spectroscopic analysis; format: protein assay
Alpha-glucosidase [2] = target: T1, Alpha-glucosidase (Saccharomyces cerevisiae S288c, UniProt P53341+P38158+P07265); experiment: Inhibition of Saccharomyces cerevisiae alpha-glucosidase assessed as release of p-nitrophenol using pNPG as substrate preincubated for 5 mins followed by substrate addition and measured after 30 mins by absorbance assay; format: protein assay
Alpha-glucosidase [3] = target: T1, Alpha-glucosidase; experiment: Inhibition of Saccharomyces cerevisiae alpha-glucosidase using pNPG as preincubated for 10 mins followed by substrate addition and measured after 30 mins by spectroscopic analysis; format: protein assay
Alpha-glucosidase [4] = target: T1, Alpha-glucosidase; experiment: Inhibition of Saccharomyces cerevisiae alpha-glucosidase using pNPG as preincubated for 15 mins followed by substrate addition and measured after 30 mins by spectroscopic analysis
Rattus norvegicus [5] = species: Rattus norvegicus; experiment: Inhibition of rat intestine alpha-glucosidase using MUG as substrate at 100 uM preincubated for 15 mins followed by substrate addition and measured after 30 mins by fluorescence microplate reader analysis; format: tissue-based; details: time 45.0 min
Alpha glucosidase [6] = target: T2, Alpha glucosidase (Homo sapiens, UniProt O43451+P10253+P14410+Q2M2H8); experiment: Inhibition of alpha-glucosidase (unknown origin) using PNPG as substrate preincubated for 15 mins followed by substrate addition by microplate reader assay; format: protein assay
Alpha-glucosidase [7] = target: T1, Alpha-glucosidase; experiment: Inhibition of Saccharomyces cerevisiae alpha-glucosidase assessed as release of p-nitrophenol using pNPG as substrate preincubated for 15 mins followed by substrate addition and measured after 15 mins by spectrophotometric analysis; format: protein assay
[8] = Inhibition of rice alpha-glucosidase using p-nitrophenyl-alpha-D-glucopyranoside as substrate preincubated for 15 mins followed by substrate addition and measured after 90 mins by spectroscopic analysis
Alpha glucosidase [9] = target: T2, Alpha glucosidase; experiment: Inhibition of alpha-glucosidase (unknown origin) at 40 uM; format: protein assay
[10] = Inhibition of rat intestine alpha-glucosidase using p-nitrophenyl-alpha-D-glucopyranoside as substrate preincubated for 10 mins followed by substrate addition and measured after 5 mins by spectroscopic analysis; format: tissue-based
Rattus norvegicus [11] = species: Rattus norvegicus; experiment: Inhibition of rat intestine alpha-glucosidase using MUG as substrate at 65 uM preincubated for 15 mins followed by substrate addition and measured after 30 mins by fluorescence microplate reader analysis; format: tissue-based; details: time 45.0 min
Alpha-glucosidase [12] = target: T1, Alpha-glucosidase; experiment: Inhibition of Saccharomyces cerevisiae alpha-glucosidase assessed as release of p-nitrophenol using pNPG as substrate preincubated for 15 mins followed by substrate addition and measured after 30 mins by spectrophotometric analysis; format: protein assay
Alpha-glucosidase [13] = target: T1, Alpha-glucosidase; experiment: Inhibition of baker's yeast alpha-glucosidase using PNP as substrate preincubated for 30 mins followed by […] addition and measured after 1 mins by UV spectrophotometric analysis; format: protein assay
Alpha-glucosidase [14] = target: T1, Alpha-glucosidase; experiment: Inhibition of Saccharomyces cerevisiae alpha-glucosidase assessed as release of p-nitrophenol using pNPG as substrate preincubated for 15 mins followed by substrate addition and measured after 15 mins by plate reader analysis; format: protein assay
Alpha-glucosidase [15] = target: T1, Alpha-glucosidase; experiment: Mixed-type inhibition of Saccharomyces cerevisiae alpha-glucosidase using PNPG as substrate incubated for 30 mins by Lineweaver-Burk double-reciprocal plot analysis; format: protein assay
Alpha-glucosidase [16] = target: T1, Alpha-glucosidase; experiment: Inhibition of Saccharomyces cerevisiae alpha-glucosidase using maltose as substrate incubated for 30 mins by spectrophotometric assay; format: protein assay
Alpha-glucosidase [17] = target: T1, Alpha-glucosidase; experiment: Inhibition of Saccharomyces cerevisiae alpha-glucosidase using PNPG as substrate incubated for 30 mins by spectrophotometric assay; format: protein assay
Alpha-glucosidase [18] = target: T1, Alpha-glucosidase; experiment: Inhibition of Saccharomyces cerevisiae alpha-glucosidase using PNPG as substrate preincubated for 15 mins followed by substrate addition and measured after 30 mins by spectrophotometric assay; format: protein assay
[19] = Inhibition of rat jejunum isomaltase; format: tissue-based
Rattus norvegicus [20] = species: Rattus norvegicus; experiment: Inhibition of rat jejunum maltase at 300 ug/ml; format: tissue-based; details: dose 300.0 µg/ml
[21] = Inhibition of rat jejunum sucrase; format: tissue-based

OC[C@H]1NC[C@H](O)[C@@H](O)[C@@H]1O
inhibition (Prunus dulcis): 81.2%
inhibition [1]: 79.6%

C=CC(C)(C)c1c(O)ccc2c(=O)c3c(O)c(CC=C(C)C)c(OC)c(O)c3oc12
IC50 (Alpha-glucosidase [2]): 8.9 µM

COc1cc(O)c2c(=O)c3c(O)c(O[C@@H]4OC[C@@H](O)[C@H](O)[C@H]4O[C@@H]4O[C@@H](C)[C@H](O)[C@@H](O)[C@H]4O)ccc3oc2c1
IC50 (Alpha-glucosidase [3]): 36 µM
IC50 (Alpha-glucosidase [4]): 765 µM

CC(C)=CCc1cc2c(=O)c3c(O)c4c(cc3oc2c(O)c1O)OC(C)(C)C=C4
IC50 (Alpha-glucosidase [2]): 29.36 µM

O=c1c2cc(O)c(O)cc2oc2c([C@H]3O[C@@H](CO)[C@H](O)[C@@H](O)[C@@H]3O)c(O)cc(O)c12
inhibition (Rattus norvegicus [5]): 50%
IC50 (Alpha glucosidase [6]): 76.98 µg/mL (≈ 182 µM)

CC(C)=CCc1c(O)cc2oc3ccc(O)cc3c(=O)c2c1O
IC50 (Alpha-glucosidase [2]): > 100 µM

CC1(C)C=Cc2c(cc3oc4c(O)c5c(cc4c(=O)c3c2O)C=CC(C)(C)O5)O1
IC50 (Alpha-glucosidase [2]): > 100 µM

COC(=O)c1c(O)c(O)cc2oc3c(Cl)c(C)c(Cl)c(O)c3c(=O)c12
IC50 (Alpha-glucosidase [7]): 40 µM

C[C@H]1O[C@H](O[C@H]2[C@H](O)[C@@H](O)[C@@H](O[C@H]3[C@H](O)[C@@H](O)C(O)O[C@@H]3CO)O[C@@H]2CO)[C@H](O)[C@@H](O)[C@@H]1N[C@H]1C=C(CO)[C@@H](O)[C@H](O)[C@H]1O (stereo partly specified) [ACARBOSE]
IC50 [8]: 2.39 µg/mL (≈ 3.7 µM)
inhibition (Alpha glucosidase [9]): 5.4%
IC50 [10]: 1820 µM
inhibition (Rattus norvegicus [11]): 50%

COC(=O)c1c(O)ccc2oc3cc(C(=O)O)cc(O)c3c(=O)c12
IC50 (Alpha-glucosidase [12]): 260 µM

COc1cc(O[C@H]2O[C@@H](CO)[C@H](O)[C@H](O)[C@@H]2O)c2c(=O)c3ccc(OC)c(OC)c3oc2c1
inhibition (Alpha glucosidase [9]): 98.8%

O=c1c2cc(O)ccc2oc2cc(O)cc(O)c12
IC50 (Alpha-glucosidase [13]): 14.7 µM
IC50 (Alpha-glucosidase [14]): 3.2 µg/mL (≈ 13.1 µM)

O=c1c2cc(O[C@H]3O[C@@H](O)[C@H](O)[C@@H](O)[C@@H]3O)c(O)cc2oc2cc(O)c([C@H]3O[C@@H](CO)[C@H](O)[C@@H](O)[C@@H]3O)cc12
IC50 [8]: 158 µg/mL (≈ 285 µM)

C=C(C)/C=C/c1c(O)c(CC=C(C)C)c2oc3c(O)ccc(O)c3c(=O)c2c1O
Ki (Alpha-glucosidase [15]): 8.5 µM
IC50 (Alpha-glucosidase [16]): 37.7 µM
IC50 (Alpha-glucosidase [17]): 10.8 µM
IC50 (Alpha-glucosidase [18]): 84 µM

O=c1c2cc(O)c(O)cc2oc2cc(O)c([C@H]3O[C@@H](CO)[C@H](O)[C@@H](O)[C@@H]3O)c(O)c12
IC50 [8]: 96.1 µg/mL (≈ 228 µM)
IC50 [19]: 216 µg/mL (≈ 511 µM)
inhibition (Rattus norvegicus [20]): 42%
inhibition (Rattus norvegicus [5]): 53%
IC50 [10]: 52200 µM
IC50 [21]: 87 µg/mL (≈ 206 µM)

CC1(C)C=Cc2c(cc3oc4ccc(O)cc4c(=O)c3c2O)O1
IC50 (Alpha-glucosidase [2]): > 100 µM

COC(=O)c1cc(O)cc2oc3cc(C)cc(O)c3c(=O)c12
IC50 (Alpha-glucosidase [12]): 2980 µM

CC(C)=CC/C(C)=C/Cc1c(O)cc2oc3c(O)ccc(O)c3c(=O)c2c1O
Ki (Alpha-glucosidase [15]): 2.8 µM
IC50 (Alpha-glucosidase [16]): 35.3 µM
IC50 (Alpha-glucosidase [17]): 6.9 µM
IC50 (Alpha-glucosidase [18]): 394 µM
